Measurements taken from patent US5955500A (G. D. Searle & Co., priority 1997, dated 1999).
Read-outs that look alike come from different tables or passages of the source.

Legend:
[1] = system: isolated working rat heart
[2] = system: isolated working rat heart; details: R 950 ng/ml
canine heart = details: for AH time / Heart rate / Mean arterial pressure: mean ± SE
Method: Fourteen adult mongrel dogs of either sex weighing between 19 and 25 kg were prepared for chronic electrophysiologic investigation by implanting epicardial electrodes and an indwelling aortic catheter. The dogs were fasted overnight and initially anesthetized with halothane on the day of surgery. After tracheal intubation, anesthesia was maintained with isoflurane and oxygen via positive pressure ventilation to keep end tidal carbon dioxide within the normal range. Muscular relaxation was induced by pancuronium. A right thoracotomy was performed in the fifth intercostal space. Three bipolar electrode pairs were sutured to the epicardial surface of the right atrial appendage and on the right and left ventricular apex (FIG. 5). A bipolar electrode was sutured to the right atrium close to the anatomical region of the sinoatrial node. A bipolar plunge electrode was placed into base of the interventricular septum to record a His bundle electrogram. An indwelling arterial catheter was placed into the aorta through the left femoral artery after surgical exposure of the artery at the inner side of the hind limb. All electrode leads were subcutaneously tunneled and exited through the skin between the scapulae. Incisions were closed in anatomic fashion and standard postoperative methods of analgesia were provided with 0.015 mg/kg of buprenorphine (Buprenex®, Reckitt & Colman, Hull, UK) and two times of 25 mg/kg cefazolin (Cefazolin Sodium®, SoloPak Laboratories, Elk Groove Village, Ill.) and dogs were allowed to recover from surgery for a period of seven days prior to testing.
Electrical signals from the bipolar electrodes, after suitable amplification in a custom built preamplifier (gain 1000), were filtered in a separate custom designed and built common mode rejection amplifier with a bandpass filter of 10-1000 Hz and individually adjusted for signal strength (maximal gain 400). […] Right atrial appendage (RA), right ventricular apex (RVA) and His bundle electrograms (HB) were recorded, simultaneously. […] All measurements of conduction times were made during spontaneous sinus rhythm.
The His bundle electrode (HBE) was advanced into the base of the interatrial septum from the aortic root. The electrode was advanced from a point located just behind and to the right of the origin of the right coronary artery. The HBE was slowly advanced parallel to the aorta, inferiorly and slightly anteriorly until a well discernible His potential was recorded. AV conduction (AH) interval was measured as the time difference (ms) between the onset of the initial rapid deflection in the RA electrogram to the beginning of the His potential in the HB electrogram. His-ventricular (HV) conduction time interval (ms) was measured from the beginning of the His potential (HBE) to the initial deflection of the QRS complex wave (earliest left ventricular activation) in a simultaneously recorded surface ECG lead II.
As an indicator of automaticity, sinus node recovery time (SNRT) was determined by pacing the right atrial appendage (30 s at 180 and 200 beats/min at 2 msec pulse duration; 2×threshold). SNRT was measured from the last pacing spike to the first spontaneous atrial activity on the His bundle electrogram after cessation of pacing (ms).
A timed extrastimulus (S2) was delivered 300 ms after the preceding pacing spike (S1).
Verapamil was dissolved in 5% dextrose and water ([…]).
During the postoperative period, each dog was trained to stand quietly in a sling during electrophysiological monitoring. Prior to measurement, electrical signals in each dog were monitored to verify the absence of spontaneous arrhythmias other-than normal respiratory sinus arrhythmias.
From the resting dog, 5 channel records were obtained at a sampling rate of 1 kHz per channel for 7 min to determine the following conduction intervals: AH, HV, QRS, QT and HR. A corrected QT interval [QTc=QT interval in ms/ (R-R interval in s)^1/2 ] was also calculated.

[3] = system: isolated working rat heart; remark: listed apart in the source

SMILES: COc1ccc(CCN(C)CCC[C@](C#N)(c2ccc(OC)c(OC)c2)C(C)C)cc1OC [R-verapamil, reference compound]
- Cardiac output (CO), significance vs baseline ([1]; R1 (50 ng/ml)): n.s.
- Heart rate (HR), significance vs baseline ([1]; R1 (50 ng/ml)): n.s.
- Peak systolic pressure (PSP), significance vs baseline ([1]; R1 (50 ng/ml)): n.s.
- Cardiac output (CO), significance vs baseline ([1]; R2 (200 ng/ml)): n.s.
- Heart rate (HR), significance vs baseline ([1]; R2 (200 ng/ml)): n.s.
- Peak systolic pressure (PSP), significance vs baseline ([1]; R2 (200 ng/ml)): n.s.
- Cardiac output (CO), significance vs baseline ([1]; R3 (450 ng/ml)): n.s.
- Heart rate (HR), significance vs baseline ([1]; R3 (450 ng/ml)): n.s.
- Peak systolic pressure (PSP), significance vs baseline ([1]; R3 (450 ng/ml)): n.s.
- Peak systolic pressure (PSP), significance vs baseline ([1]; R4 (950 ng/ml)): n.s.
- Effect on peak systolic pressure (PSP), in words ([1]; increasing levels of R): remains unaffected by increasing levels of R
- Effect on peak systolic pressure (PSP), in words [2]: no apparent effect on PSP
- Nature of cardiac effect (inotropic / chronotropic) ([2]; S 100 ng/ml): primarily chronotropic
- Peak systolic pressure (PSP), significance vs predrug ([2]; S 100 ng/ml, R/S ratio 9.5): n.s.
- AH time (canine heart; 0.1 mg/kg i.v., 0 min): 88 ± 5 ms
- Heart rate (canine heart; 0.1 mg/kg i.v., 0 min): 103 ± 9 beats per min
- Mean arterial pressure (canine heart; 0.1 mg/kg i.v., 0 min): 94 ± 3 mmHg
- AH time (canine heart; 0.1 mg/kg i.v., 1 min): 94 ± 4 ms
- Heart rate (canine heart; 0.1 mg/kg i.v., 1 min): 95 ± 7 beats per min
- Mean arterial pressure (canine heart; 0.1 mg/kg i.v., 1 min): 95 ± 3 mmHg
- AH time (canine heart; 0.1 mg/kg i.v., 2 min): 93 ± 5 ms
- Heart rate (canine heart; 0.1 mg/kg i.v., 2 min): 98 ± 8 beats per min
- Mean arterial pressure (canine heart; 0.1 mg/kg i.v., 2 min): 95 ± 2 mmHg
- AH time (canine heart; 0.1 mg/kg i.v., 3 min): 93 ± 5 ms
- Heart rate (canine heart; 0.1 mg/kg i.v., 3 min): 93 ± 7 beats per min
- Mean arterial pressure (canine heart; 0.1 mg/kg i.v., 3 min): 95 ± 3 mmHg
- AH time (canine heart; 0.1 mg/kg i.v., 4 min): 95 ± 5 ms
- Heart rate (canine heart; 0.1 mg/kg i.v., 4 min): 91 ± 8 beats per min
- Mean arterial pressure (canine heart; 0.1 mg/kg i.v., 4 min): 95 ± 3 mmHg
- AH time (canine heart; 0.1 mg/kg i.v., 5 min): 95 ± 5 ms
- Heart rate (canine heart; 0.1 mg/kg i.v., 5 min): 92 ± 8 beats per min
- Mean arterial pressure (canine heart; 0.1 mg/kg i.v., 5 min): 95 ± 3 mmHg
- AH time (canine heart; 0.2 mg/kg i.v., 0 min): 93 ± 4 ms
- Heart rate (canine heart; 0.2 mg/kg i.v., 0 min): 106 ± 7 beats per min
- Mean arterial pressure (canine heart; 0.2 mg/kg i.v., 0 min): 90 ± 3 mmHg
- AH time (canine heart; 0.2 mg/kg i.v., 1 min): 99 ± 5 ms
- Heart rate (canine heart; 0.2 mg/kg i.v., 1 min): 104 ± 8 beats per min
- Mean arterial pressure (canine heart; 0.2 mg/kg i.v., 1 min): 97 ± 3 mmHg
- AH time (canine heart; 0.2 mg/kg i.v., 2 min): 97 ± 5 ms
- Heart rate (canine heart; 0.2 mg/kg i.v., 2 min): 99 ± 9 beats per min
- Mean arterial pressure (canine heart; 0.2 mg/kg i.v., 2 min): 97 ± 3 mmHg
- AH time (canine heart; 0.2 mg/kg i.v., 3 min): 98 ± 4 ms
- Heart rate (canine heart; 0.2 mg/kg i.v., 3 min): 102 ± 9 beats per min
- Mean arterial pressure (canine heart; 0.2 mg/kg i.v., 3 min): 94 ± 2 mmHg
- AH time (canine heart; 0.2 mg/kg i.v., 4 min): 98 ± 4 ms
- Heart rate (canine heart; 0.2 mg/kg i.v., 4 min): 96 ± 8 beats per min
- Mean arterial pressure (canine heart; 0.2 mg/kg i.v., 4 min): 96 ± 2 mmHg
- AH time (canine heart; 0.2 mg/kg i.v., 5 min): 99 ± 5 ms
- Heart rate (canine heart; 0.2 mg/kg i.v., 5 min): 95 ± 9 beats per min
- Mean arterial pressure (canine heart; 0.2 mg/kg i.v., 5 min): 92 ± 2 mmHg
- AH time (canine heart; 0.4 mg/kg i.v., 0 min): 97 ± 4 ms
- Heart rate (canine heart; 0.4 mg/kg i.v., 0 min): 123 ± 5 beats per min
- Mean arterial pressure (canine heart; 0.4 mg/kg i.v., 0 min): 86 ± 2 mmHg
- AH time (canine heart; 0.4 mg/kg i.v., 1 min): 106 ± 5 ms
- Heart rate (canine heart; 0.4 mg/kg i.v., 1 min): 108 ± 6 beats per min
- Mean arterial pressure (canine heart; 0.4 mg/kg i.v., 1 min): 94 ± 2 mmHg
- AH time (canine heart; 0.4 mg/kg i.v., 2 min): 106 ± 4 ms
- Heart rate (canine heart; 0.4 mg/kg i.v., 2 min): 109 ± 5 beats per min
- Mean arterial pressure (canine heart; 0.4 mg/kg i.v., 2 min): 98 ± 3 mmHg
- AH time (canine heart; 0.4 mg/kg i.v., 3 min): 104 ± 4 ms
- Heart rate (canine heart; 0.4 mg/kg i.v., 3 min): 106 ± 7 beats per min
- Mean arterial pressure (canine heart; 0.4 mg/kg i.v., 3 min): 97 ± 3 mmHg
- AH time (canine heart; 0.4 mg/kg i.v., 4 min): 104 ± 5 ms
- Heart rate (canine heart; 0.4 mg/kg i.v., 4 min): 108 ± 7 beats per min
- Mean arterial pressure (canine heart; 0.4 mg/kg i.v., 4 min): 99 ± 3 mmHg
- AH time (canine heart; 0.4 mg/kg i.v., 5 min): 105 ± 5 ms
- Heart rate (canine heart; 0.4 mg/kg i.v., 5 min): 111 ± 6 beats per min
- Mean arterial pressure (canine heart; 0.4 mg/kg i.v., 5 min): 98 ± 3 mmHg
- Interaction between MAP and HR (multiple linear regression), in words (canine heart; increase in HR against drop in MAP): least increase in heart rate measured against a drop in blood pressure
- Peak systolic pressure (PSP), significance vs predrug ([3]; R alone, R1-R4 (50-950 ng/ml cumulative)): n.s.
- Cardiac output change, in words ([3]; R exceeding 200 ng/ml (R2)): Cardiac output appears to increase
